Results on two molecules are retold here after US12102660B2, “Association of N-acetylcysteine and colistin for use in bacterial infections” (Zambon S.P.A., priority 2017, dated 2024).

The test system of assay [1] is colistin resistant A. baumannii clinical isolates. In words: MIC determination and classic checkerboard assays (colistin, NAC). The format is cell-based, Acinetobacter baumannii. The settings on record: for MIC: Acinetobacter baumannii. On the procedure:
(§1) In vitro antimicrobial synergism between NAC and colistin was determined following EUCAST guidelines. In particular, the total fractional inhibitory concentration (ΣFIC) was calculated as follows: ΣFIC equals FIC of agent A plus FIC of agent B, where the FIC of agent A or B is the minimum inhibitory concentration (MIC) of agent A or B in the presence of the other divided by the MIC of agent A or B alone. Synergism was defined as a ΣFIC value of <0.5.
Classic checkerboard assays were used to investigate potential synergism between colistin (range 0.25-256 μg/ml) and NAC (range 0.5-32 mg/ml). Fraction inhibitory concentration indices (FICIs) were calculated, and synergism was defined as FICI values <0.5. Synergy between colistin and NAC was also confirmed by time-kill assays performed with one isolate, using two different concentrations of colistin (2 and 8 μg/ml, representing concentrations achievable in serum and epithelial lining fluid—ELF, respectively) and NAC (1.6 and 8 mg/ml, likely achievable in ELF by topical administration).

Assay [2] has as its system S. maltophilia clinical isolates. The description is as above. The class given is cell-based, Stenotrophomonas maltophilia. The settings on record: for MIC: Stenotrophomonas maltophilia. On the procedure: as §1
Twenty S. maltophilia clinical isolates were tested, including also four isolates from patients affected by cystic fibrosis (CF). […] Synergism between colistin (range 0.25-256 μg/ml) and NAC (range 0.5-32 mg/ml) was investigated by classic checkerboard assays. Fraction inhibitory concentration indices (FICIs) were calculated, and synergism was defined as FICI values <0.5. Time-kill assays were performed with two clinical isolates (including one strain resistant to trimethoprim-sulphamethoxazole, and one from CF). For this purpose, two different concentrations of colistin (2 and 8 μg/ml, representing concentrations achievable in serum and epithelial lining fluid—ELF, respectively) and NAC (1.6 and 8 mg/ml, likely achievable in ELF by topical administration) were tested alone and in combination.

Setting [3] is: seven colistin resistant A. baumannii clinical isolates.
Where [4] appears, read: twenty S. maltophilia clinical isolates.

Read-outs that look alike come from different tables or passages of the source. Where only a bound is given, the exact number is not on record here.

Broadly, the MIC is the least concentration at which growth counts as inhibited. Regarding `CC(=O)N[C@@H](CS)C(=O)O` [NAC, N-acetylcysteine], the MIC is > 32 mg/mL in assay [1] (isolate N50, read-out: NAC MIC); > 32 mg/mL in assay [1] (the remaining A. baumannii isolates, read-out: MIC of NAC); 32 mg/mL in assay [1] (two of seven A. baumannii isolates, read-out: MIC of NAC); 16 mg/mL in assay [2] (nine S. maltophilia isolates); > 32 mg/mL in assay [2] (one S. maltophilia isolate); 32 mg/mL in assay [2] (the remaining S. maltophilia isolates).
What is called MIC50 is the lowest concentration that inhibits either 50% of growth or 50% of the strains tested, depending on the study. In general, MIC90 refers to an inhibitory concentration at the 90% level, which refers to growth in some studies and to a panel of isolates in others. For the molecule colistin sulfate, the “Colistin MIC” value in assay [1] (isolate N50) was found to be 16 µg/mL. In assay [1] (setting [3]), the MIC50 was 64 µg/mL, the MIC90 is 128 µg/mL and the “colistin MIC range” value was in the range of 16 to 256 µg/mL. The “colistin 8 μg/ml as multiple of MIC” value in assay [1] (strain Z165) is reported as 0.25 ×MIC. Also, the “colistin 8 μg/ml as multiple of MIC” value in assay [1] (strain Z167) is 0.06 ×MIC. In assay [2] (setting [4]), the MIC50 came out at 16 µg/mL and the MIC90 was determined as 64 µg/mL.
